{
  "source": "patent US20120035187A1",
  "about": "(priority 2009, published 2012)",
  "key": {"PC12-HS cells [1]": {"tested_on": "PC12-HS cells", "assay": "Apoptosis induced by amyloid β fragment, Hoechst 33258 staining", "assay_type": "cell-based, rat", "settings": "50 μM amyloid β fragment, NK-4 200 ng/ml", "procedure": "A plurality of peptide fragments (called “AMYLOID β FRAGMENT” commercialized by AnaSpec, Inc., CA, USA, each peptide having the amino acid sequence of SEQ ID NO:1), which have an amino acid sequence positioning from 25th to 35th from the N-terminus of amyloid R peptide with human origin and have been recognized as a main factor of neurocyte death in Alzheimer's disease, were diluted with phosphate buffered saline (PBS) to give a concentration of 2 mM, and used after being aged at 37° C. for six hours to coagulate them to increase their cytotoxicity before use. […] Viability (%) of cells in each well was determined and shown in Table 1 by calculating a relative value when the fluorescent intensity of the control was regarded as 100%. […] Thereafter, the cells were stained with […] Hoechst 33258 dye commercialized by SIGMA Corporation, Tokyo, Japan, for five min, observed at a magnitude corresponding to a visual filed containing about 100 cells under a phase contrast microscope and a fluorescent microscope, and counted. The occupied percentage (%) of cells with apoptosis against the total cells in one visual field was calculated and the data was also shown in Table 1. […]"}, "PI3K-Akt cascade": {"tested_on": "PI3K-Akt cascade", "assay": "Actions of NK-4 on PC12-HS cells in presence of K252a or LY294002", "assay_type": "cell-based, rat", "settings": "concrete data omitted"}, "[2]": {"tested_on": "intracellular cyclic adenosine monophosphate (AMP)", "assay": "Increment of intracellular cyclic AMP", "assay_type": "cell-based"}, "SAPK/JNK": {"tested_on": "SAPK/JNK", "assay": "Phosphorylation of SAPK/JNK by hydrogen-peroxide-induced cell injury", "assay_type": "cell-based"}, "[3]": {"tested_on": "hamsters with cerebellar ataxia", "assay": "Histological evaluation of cerebellum of hamsters with cerebellar ataxia", "assay_type": "in vivo, hamster", "settings": "10-weeks of age; for Cerebellar volume (mm^3) / Number of Purkinje cells (cells) / Number of granular cells (cells/20000 μm^2): cerebellar ataxia hamsters; for Number of subject (head) with apparent demyelination in cerebellar white matter: five heads per group", "text": "Since NK-4 was confirmed to have a neurodegenerative inhibitory action in Experiment 1, hamsters with cerebellar ataxia (cerebellar ataxia is called “cerebellar A” and hamsters with cerebellar ataxia are called “hamsters with cerebellar A”, hereinafter) as a suitable model for human neurodegenerative diseases (e.g., spinal cerebellar degeneration) were subjected to examine the influence of NK-4 administration on their behaviors and brain tissues. Twenty-five hamsters with natural mutation (Nna1 inhibition), which are known to lose Purkinje's cells after three-weeks of age and then induce a spontaneous onset of kinetic motor ataxia after seven-weeks of age (see Akita K. et al., “J. Neurogenetics”, Vol. 21, pp. 19-29, 2007), had been fed at Hayashibara Biochemical Laboratories., Inc., Okayama, Japan, were randomly allocated to the test groups 1 to 5, five heads in each group, as shown in Table 2. Prior to the onset of cerebellar A (at three-weeks of age), PBS was started to administer to the hamsters in the test group 1 at a dose of 10 ml/kg/day. Prior to the onset of cerebellar A (at three-weeks of age), NK-4 was started to be administered to the hamsters in the test groups 2 to 4 at a daily dose of 20 μg/kg, 100 μg/kg or 500 μg/kg. “IGF-1, human, a product name of insulin-like growth factor, commercialized by Assaypro LLC, MO, USA. These administered ingredients were intraperitoneally administered daily to hamsters once a day up to 10-weeks of age. The degree of symptom of cerebellar A and the improvement effect on the symptom by NK-4 were evaluated with an index of improvement in motor coordination of hamsters by conducting once a week the later described rotarod test and the slant tolerance test. At the age of 10-weeks, the hamsters were subjected to counting the falling down frequency and extracted their brains, which were then histologically evaluated. In parallel, the concentration of glutamic acid in the bloods and cerebrospinal fluids (CSF) of the hamsters was assayed. As a test group 6, five normal hamsters, with the same age as the hamsters with cerebellar A used in the test groups 1 to 5, were provided and tested similarly as the hamsters with cerebellar A in such a manner of intraperitoneally administering PBS to them at a dose of 10 ml/kg/day once a day up to 10-weeks of age.\nHamsters, 10-weeks of age, after completion of test on coordinated movement such as a confirmation of falling down frequency were intraperitoneally received 50 mg/kg pentobarbital, bled from their postcavas to let them die, and extracted their cerebra and cerebella, followed by fixing them with a 10% by volume of formalin solution. The resulting cerebra and cerebella were photographed with a digital camera apart from a prescribed high position and measured diameters in sagittal and horizontal directions for each photograph. The volumes of cerebra and cerebella were respectively determined by calculating with the formula, (length of sagittal direction)^2×(length of horizontal direction)×0.5; and the data from five heads in each group were averaged. The hamsters with cerebella A used in this experiment are known to reduce cell density of Purkinje's cells and granular cells. Cerebellar slices, which had been cut out in sagittal direction, were stained with hematoxylin-eosin stain, and microscopically observed to count the total number of Purkinje's cells within a Purkinje's cell layer ([…] I to X) and the number of granular cells per unit area, and to confirm subjects in which demyelination was observed within their cerebellar white matters. The results are in Table 5 in parallel."}, "APP Tg mouse [4]": {"tested_on": "APP Tg mouse", "assay": "Passive avoidance test, APP transgenic mouse", "assay_type": "in vivo", "settings": "for Passive avoidance reaction: intraperitoneal, five times a week for 12 weeks"}, "[5]": {"tested_on": "C57BL/6J mice with cerebrovascular dementia", "assay": "Novelty object recognition test, mouse with cerebrovascular dementia (ligation of right common carotid artery)", "assay_type": "in vivo", "settings": "for Object discrimination index: mice with ligation of right common carotid artery, NK-4 i.p. five days a week"}, "PC12-HS cells [6]": {"tested_on": "PC12-HS cells", "quoted_text": "The cells were cultured with a serum-free medium as a nutrition-starvation-condition. PC12-HS cells were subjected to tests after stock cultured cells thereof were thawed and cultured with a D-MEM medium supplemented with 10% by volume of fetal bovine serum (FBS). […] As a control, cells were cultured with a NK-4 free D-MEM medium and, similarly as above, cultured after the addition of an ALAMAR BLUE solution commercialized by Trek Diagnostic Systems Inc., Ohio, USA, and measured for fluorescent intensity for each well. Relative values for cells in each well were determined when the fluorescent intensity for control was regarded as 100%, and the data are also shown in Table 1 as survival percentages (%) of cells in each well."}, "APP Tg mouse [7]": {"tested_on": "APP Tg mouse", "assay": "Novelty object recognition test, APP transgenic mouse", "settings": "for Index for object discrimination: intraperitoneal, five times a week for 12 weeks"}, "[8]": {"settings": "i.p. five times a week for 12 weeks"}},
  "note": "Read-outs that look alike come from different tables or passages of the source. Marks after values point to notes of the source that are not given here.",
  "data": [
    {"smiles": "CCN1C=CC(=CC=C(C=Cc2cc[n+](CC)c3ccccc23)c2cc[n+](CC)c3ccccc23)c2ccccc21.[I-].[I-]", "note": "[NK-4]", "values": [
      {"measurement": "Percentage of appoptosis-induced cells (%) Amyloid β fragment", "setting": "PC12-HS cells [1]", "result": "13 ** %"},
      {"measurement": "inhibition by K252a of the actions of NK-4 on PC12-HS cell growth promotion and neurite outgrowth", "setting": "PI3K-Akt cascade; K252a, protein kinase inhibitor specific to TrkA", "result": "did not inhibit"},
      {"measurement": "inhibition by LY294002 of the action of NK-4", "setting": "PI3K-Akt cascade; LY294002, PI3K inhibitor", "result": "is inhibited by LY294002"},
      {"measurement": "increment of intracellular cyclic adenosine monophosphate (AMP)", "setting": "[2]", "result": "inducing the increment of intracellular cyclic adenosine monophosphate (AMP)"},
      {"measurement": "phosphorylation of SAPK/JNK", "setting": "SAPK/JNK", "result": "inhibits the phosphorylation of SAPK/JNK"},
      {"measurement": "Cerebellar volume (mm^3)", "setting": "[3]; 20 μg/kg body weight", "result": "76.0 ± 8.2* mm^3"},
      {"measurement": "Number of Purkinje cells (cells)", "setting": "[3]; 20 μg/kg body weight", "result": "187 ± 37", "unit": "cells"},
      {"measurement": "Number of granular cells (cells/20000 μm^2)", "setting": "[3]; 20 μg/kg body weight", "result": "408 ± 8", "unit": "cells/20000 μm^2"},
      {"measurement": "Cerebellar volume (mm^3)", "setting": "[3]; 100 μg/kg body weight", "result": "77.0 ± 2.8* mm^3"},
      {"measurement": "Number of Purkinje cells (cells)", "setting": "[3]; 100 μg/kg body weight", "result": "252 ± 29", "unit": "cells"},
      {"measurement": "Number of granular cells (cells/20000 μm^2)", "setting": "[3]; 100 μg/kg body weight", "result": "419 ± 6", "unit": "cells/20000 μm^2"},
      {"measurement": "Cerebellar volume (mm^3)", "setting": "[3]; 500 μg/kg body weight", "result": "80.5 ± 10.8* mm^3"},
      {"measurement": "Number of Purkinje cells (cells)", "setting": "[3]; 500 μg/kg body weight", "result": "231 ± 41", "unit": "cells"},
      {"measurement": "Number of granular cells (cells/20000 μm^2)", "setting": "[3]; 500 μg/kg body weight", "result": "436 ± 7", "unit": "cells/20000 μm^2"},
      {"measurement": "Number of subject (head) with apparent demyelination in cerebellar white matter", "setting": "[3]; 20 μg/kg body weight", "result": 4, "unit": "head"},
      {"measurement": "Number of subject (head) with apparent demyelination in cerebellar white matter", "setting": "[3]; 100 μg/kg body weight", "result": 1, "unit": "head"},
      {"measurement": "Number of subject (head) with apparent demyelination in cerebellar white matter", "setting": "[3]; 500 μg/kg body weight", "result": 0, "unit": "head"},
      {"measurement": "Passive avoidance reaction", "setting": "APP Tg mouse [4]; dose 100 μg/kg body weight", "result": "280 ± 20", "unit": "s"},
      {"measurement": "Passive avoidance reaction", "setting": "APP Tg mouse [4]; dose 500 μg/kg body weight", "result": "243 ± 25", "unit": "s"},
      {"measurement": "passive avoidance test (in words)", "setting": "APP Tg mouse [4]; [8]", "result": "improved the dementia"},
      {"measurement": "adverse effect", "setting": "[5]; mice with cerebrovascular dementia, i.p. five days a week", "result": "No adverse effect"},
      {"measurement": "Object discrimination index", "setting": "[5]; On the 3rd week after operation", "result": "0.51 ± 0.22"},
      {"measurement": "Object discrimination index", "setting": "[5]; On the 4th week after operation", "result": "0.31 ± 0.20"},
      {"measurement": "Survibal percentage of cells when admixed with cytotoxic factor (%) Nutrition starvation", "setting": "PC12-HS cells [6]; NK-4 500 ng/ml", "result": "78 ** %"},
      {"measurement": "Survibal percentage of cells when admixed with cytotoxic factor (%) Nutrition starvation", "setting": "PC12-HS cells [6]; NK-4 5000 ng/ml", "result": "64 ** %"},
      {"measurement": "concentration required for protection action against nutrition starvation", "setting": "PC12-HS cells [6]; PC12-HS cells", "result": 500, "unit": "ng/mL"},
      {"measurement": "Survibal percentage of cells when admixed with cytotoxic factor (%) Nutrition starvation", "setting": "PC12-HS cells [6]; PC12-HS cells, FBS-free medium, 3 days, NK-4 50 ng/ml, control free of cytotoxic factor = 100", "result": 47, "unit": "%"},
      {"measurement": "Index for object discrimination", "setting": "APP Tg mouse [7]; dose 100 μg/kg body weight", "result": "0.20 ± 0.06"},
      {"measurement": "Index for object discrimination", "setting": "APP Tg mouse [7]; dose 500 μg/kg body weight", "result": "0.30 ± 0.05"},
      {"measurement": "adverse effect", "setting": "APP Tg mouse [7]; [8]", "result": "No adverse effect"},
      {"measurement": "object discrimination test (in words)", "setting": "APP Tg mouse [7]; [8]", "result": "improved the dementia"}
    ]}
  ]
}
